# pIC50: −log10 of the molar value.
# Assays:
# HPK1 protein = molecular target: T1, HPK1 protein (Homo sapiens, UniProt Q92918); assay: HPK1 enzyme inhibition assay (ADP-Glo); format: biochemical; details: MBP substrate, ATP, ADP-Glo readout
# T1 construct: purchased Signal Chem M23-11G-10
# T1 sequence (Q92918 1-346 limits assumed): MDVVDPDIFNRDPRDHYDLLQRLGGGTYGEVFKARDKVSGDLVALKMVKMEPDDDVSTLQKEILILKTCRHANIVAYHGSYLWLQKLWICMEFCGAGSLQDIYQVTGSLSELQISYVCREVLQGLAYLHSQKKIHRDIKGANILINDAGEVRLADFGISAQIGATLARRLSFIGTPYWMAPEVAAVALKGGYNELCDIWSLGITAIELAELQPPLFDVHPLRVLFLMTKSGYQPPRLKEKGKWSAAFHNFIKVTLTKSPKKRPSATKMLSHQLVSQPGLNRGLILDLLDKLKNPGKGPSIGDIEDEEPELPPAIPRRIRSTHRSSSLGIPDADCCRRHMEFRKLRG
# Experimental: The compound was dissolved in 100% DMSO at the concentration of 10 mM. The HPK1 protein was purchased from Signal Chem (M23-11G-10). 2.5 μL per well of 2×HPK1 protein was added to assay plate containing the test compound, centrifuged at 1500 rpm for 1 minute, and then incubated at 25° C. for 60 minutes. MBP protein was purchased from Signal Chem (M42-51N) and ATP was purchased from Promega (V9102). The two were added 2.5 μL per well mixture of 2×MBP (0.2 ug/ul) and ATP (20 μM), centrifuged at 1500 rpm for 1 minute, then incubated at 25° C. for 60 minutes. Then added 5 μL of ADP-Glo from Promega (V9102) to the assay plate and depleted the unconsumed ATP for 60 minutes. Then centrifuged at 1500 rpm for 1 minute and incubated at 25° C. for 60 minutes. Finally, 10 μL of the kinase assay reagent from Promega (V9102) was added to the assay plate to convert ADP to ATP, centrifuged at 1500 rpm for 1 minute, incubate at 25° C. for 40 minutes. After 40 minutes incubation, the […] was determined. Based on the results, the IC50 value of the compound was calculated.
# HPK1 p-SLP-76 = HPK1 p-SLP-76 inhibition assay in human PBMC (HTRF); format: cell-based; details: 6 h compound, anti-CD3 stimulation 20 min
# Experimental: Human PBMC were purchased from OriCells (FPB004F-C). Before compound treatment, PBMC were starved in PRMI-1640 medium supplemented with 0.5% FBS overnight. The cell density was adjusted to 1*10^7 cells/mL in assay medium (RPMI-1640 no phenol red with 0.5% FBS) and 16 μL cell suspension was transferred per well to a 384-well plate (Corning #3765). 6× solution of test compound was prepared in assay medium and 4 μL was added per well to the 384-well plate. The plate was then incubated at 37° C., 5% CO2 for 6 h. PBMC in 384-well plate were stimulated with anti-CD3 (BD Biosciences #555329, final conc. is 10 ug/mL) for 20 min at 37° C., 5% CO2 by adding 4 μL 6× antibody solution per well. Phospho-SLP76 HTRF kit was purchased from Cisbio (63ADK076PEH). 8 μL 4× Lysis Buffer was added to 384-well plate after anti-CD3 stimulation. The plate was centrifuged at 1,000 rpm for 1 min, shaken at 250 rpm for 60 min and centrifuged again at 1,000 rpm for 5 min. Afterwards the cell lysates were transferred to the assay plate (Greiner #784075) with 16 μL per well. 4 μL detection antibody mix per well prepared in Detection Buffer was added to the assay plate, followed by centrifugation at 1,000 rpm for 1 min and incubation at 25° C. overnight.
pIC50 (HPK1 protein),pIC50 (HPK1 p-SLP-76),SMILES
7.00 to 8.00,5.00 to 5.52,"CCc1c[nH]c2ncc(-c3cccc(N4CCN(C(=O)CCOCCOCCOc5cccc6c5CN(C5CCC(=O)NC5=O)C6=O)CC4=O)c3)c(Cl)c12 (stereo not shown) [Example 12, 3-(4-(2-(2-(3-(4-(3-(4-chloro-3-ethyl-1H-pyrrolo[2,3-b]pyridin-5-yl)phenyl)-3-oxopiperazin-1-yl)-3-oxopropoxy)ethoxy)ethoxy)-1-oxoisoindolin-2-yl)piperidine-2,6-dione]"
7.00 to 8.00,5.52 to 6.52,"O=C1CCC(N2C(=O)c3ccc(C4=CCN(CCCN5CCN(c6cccc(-c7cnc8[nH]cc(C9CC9)c8c7Cl)c6)C(=O)C5)CC4)cc3C2=O)C(=O)N1 (stereo not shown) [Example 70, 5-(1-(3-(4-(3-(4-chloro-3-cyclopropyl-1H-pyrrolo[2,3-b]pyridin-5-yl)phenyl)-3-oxopiperazin-1-yl)propyl)-1,2,3,6-tetrahydropyridin-4-yl)-2-(2,6-dioxopiperidin-3-yl)isoindoline-1,3-dione]"
≥ 8.00,≥ 6.52,"O=C1CCC(N2C(=O)c3ccc(C4CCN(CCCN5CCN(c6cccc(-c7cnc8[nH]cc(C9CC9)c8c7Cl)c6)C(=O)C5)CC4)cc3C2=O)C(=O)N1 (stereo not shown) [Example 71, 5-(1-(3-(4-(3-(4-chloro-3-cyclopropyl-1H-pyrrolo[2,3-b]pyridin-5-yl)phenyl)-3-oxopiperazin-1-yl)propyl)piperidin-4-yl)-2-(2,6-dioxopiperidin-3-yl) isoindoline-1,3-dione]"
≥ 8.00,≥ 6.52,"O=C1CCC(N2C(=O)c3ccc(N4CCN(CCCN5CCN(c6cccc(-c7cnc8[nH]cc(C9CC9)c8c7Cl)n6)C(=O)C5)CC4)cc3C2=O)C(=O)N1 (stereo not shown) [Example 80, 5-(4-(3-(4-(6-(4-chloro-3-cyclopropyl-1H-pyrrolo[2,3-b]pyridin-5-yl)pyridin-2-yl)-3-oxopiperazin-1-yl)propyl)piperazin-1-yl)-2-(2,6-dioxopiperidin-3-yl)isoindoline-1,3-dione]"
≥ 8.00,≥ 6.52,"O=C1CCC(N2Cc3cc(N4CCN(CCCN5CCN(c6cccc(-c7cnc8[nH]cc(C9CC9)c8c7Cl)n6)C(=O)C5)CC4)ccc3C2=O)C(=O)N1 (stereo not shown) [Example 81, 3-(5-(4-(3-(4-(6-(4-chloro-3-cyclopropyl-1H-pyrrolo[2,3-b]pyridin-5-yl)pyridin-2-yl)-3-oxopiperazin-1-yl)propyl)piperazin-1-yl)-1-oxoisoindolin-2-yl)piperidine-2,6-dione]"
≥ 8.00,≥ 6.52,"O=C1CCC(N2Cc3cc(C4CCN(CCCN5CCN(c6cccc(-c7cnc8[nH]cc(C9CC9)c8c7Cl)n6)C(=O)C5)CC4)ccc3C2=O)C(=O)N1 (stereo not shown) [Example 82, 3-(5-(1-(3-(4-(6-(4-chloro-3-cyclopropyl-1H-pyrrolo[2,3-b]pyridin-5-yl)pyridin-2-yl)-3-oxopiperazin-1-yl)propyl)piperidin-4-yl)-1-oxoisoindolin-2-yl)piperidine-2,6-dione]"
≥ 8.00,≥ 6.52,O=C1CCC(N2Cc3cc(C4=CCN(CCCN5CCN(c6cccc(-c7cnc8[nH]cc(C9CC9)c8c7Cl)n6)C(=O)C5)CC4)ccc3C2=O)C(=O)N1 (stereo not shown) [Example 83]
≥ 8.00,≥ 6.52,"O=C1CCC(N2C(=O)c3ccc(C4CCN(CCCN5CCN(c6cccc(-c7cnc8[nH]cc(C9CC9)c8c7Cl)n6)C(=O)C5)CC4)cc3C2=O)C(=O)N1 (stereo not shown) [Example 84, 5-(1-(3-(4-(6-(4-chloro-3-cyclopropyl-1H-pyrrolo[2,3-b]pyridin-5-yl)pyridin-2-yl)-3-oxopiperazin-1-yl)propyl)piperidin-4-yl)-2-(2,6-dioxopiperidin-3-yl)isoindoline-1,3-dione]"
≥ 8.00,5.52 to 6.52,"O=C1CCC(N2C(=O)c3ccc(C4=CCN(CCCN5CCN(c6cccc(-c7cnc8[nH]cc(C9CC9)c8c7Cl)n6)C(=O)C5)CC4)cc3C2=O)C(=O)N1 (stereo not shown) [Example 85, 5-(1-(3-(4-(6-(4-chloro-3-cyclopropyl-1H-pyrrolo[2,3-b]pyridin-5-yl)pyridin-2-yl)-3-oxopiperazin-1-yl)propyl)-1,2,3,6-tetrahydropyridin-4-yl)-2-(2,6-dioxopiperidin-3-yl)isoindoline-1,3-dione]"
≥ 8.00,5.52 to 6.52,O=C1CCC(c2ccc(OC3CCN(CCCN4CCN(c5cccc(-c6cnc7[nH]cc(C8CC8)c7c6Cl)c5)C(=O)C4)CC3)cc2)C(=O)N1 (stereo not shown) [Example 86]
≥ 8.00,≥ 6.52,O=C1CCC(c2ccc(C3CCN(CCCCN4CCN(c5cccc(-c6cnc7[nH]cc(C8CC8)c7c6Cl)c5)C(=O)C4)CC3)cc2)C(=O)N1 (stereo not shown) [Example 87]
7.00 to 8.00,< 5.00,O=C1CCC(N2C(=O)c3ccc(N4CC(CCOC(=O)N5CCN(c6cccc(-c7cnc8[nH]cc(CC(F)F)c8c7Cl)c6)C(=O)C5)C4)cc3C2=O)C(=O)N1 (stereo not shown) [Example 91]
≥ 8.00,5.52 to 6.52,"Cn1nc(C2CCC(=O)NC2=O)c2ccc(C3CCN(CCCN4CCN(c5cccc(-c6cnc7[nH]cc(C8CC8)c7c6Cl)c5)C(=O)C4)CC3)cc21 (stereo not shown) [Example 92, 3-(6-(1-(3-(4-(3-(4-chloro-3-cyclopropyl-1H-pyrrolo[2,3-b]pyridin-5-yl)phenyl)-3-oxopiperazin-1-yl)propyl)piperidin-4-yl)-1-methyl-1H-indazol-3-yl)piperidine-2,6-dione]"
≥ 8.00,5.52 to 6.52,"O=C1CCN(c2cnc3cc(C4=CCN(CCCN5CCN(c6cccc(-c7cnc8[nH]cc(C9CC9)c8c7Cl)c6)C(=O)C5)CC4)ccn23)C(=O)N1 [Example 93, 1-(7-(1-(3-(4-(3-(4-chloro-3-cyclopropyl-1H-pyrrolo[2,3-b]pyridin-5-yl)phenyl)-3-oxopiperazin-1-yl)propyl)-1,2,3,6-tetrahydropyridin-4-yl)imidazo[1,2-a]pyridin-3-yl)dihydropyrimidine-2,4 (1H,3H)-dione]"
≥ 8.00,≥ 6.52,O=C1CCC(Nc2ccc(C3CCN(CCCS(=O)(=O)N4CCN(c5cccc(-c6cnc7[nH]cc(C8CC8)c7c6Cl)c5)C(=O)C4)CC3)cc2)C(=O)N1 (stereo not shown) [Example 104]
≥ 8.00,≥ 6.52,"O=C1CCC(Nc2ccc(N3CCN(CCCS(=O)(=O)N4CCN(c5cccc(-c6cnc7[nH]cc(C8CC8)c7c6Cl)c5)C(=O)C4)CC3)c(F)c2)C(=O)N1 (stereo not shown) [Example 105, 3-((4-(4-(3-((4-(3-(4-chloro-3-cyclopropyl-1H-pyrrolo[2,3-b]pyridin-5-yl)phenyl)-3-oxopiperazin-1-yl)sulfonyl)propyl)piperazin-1-yl)-3-fluorophenyl)amino)piperidine-2,6-dione]"
≥ 8.00,5.52 to 6.52,O=C1CCC(N2C(=O)c3ccc(N4CCN(CCCS(=O)(=O)N5CCN(c6cccc(-c7cnc8[nH]cc(CC(F)F)c8c7Cl)c6)C(=O)C5)CC4)cc3C2=O)C(=O)N1 (stereo not shown) [Example 106]

# Reference: patent US20240368159A1, “HPK1 DEGRADERS, COMPOSITIONS COMPRISING THE HPK1 DEGRADER, AND METHODS OF USING THE SAME” (BIOFRONT LTD, priority 2021, published 2024)
